Experimental data: patent US11066414B2, “Cot modulators and methods of use thereof” (Gilead Sciences, Inc., priority 2015, dated 2021)
Where two headings read alike, the source gives them in different places.

Legend:
TNFα = assay: Cot Monocyte TNFα Cell Based Assay
Human Cot = Human Cot (Homo sapiens (Human), UniProt P41279); assay: High Throughput Cot Biochemical Assay
[1] = Homo sapiens, Monocyte, read-out: EC50 TNF, LPS-stimulated human monocytes, TNFα
[2] = IC50 HTRF, Cot HTRF (TR-FRET) biochemical assay
[3] = read-out: EC50 TNF, LPS-stimulated human monocytes, TNFα
[4] = read-out: IC50 HTRF, Cot HTRF (TR-FRET) biochemical assay
[5] = Homo sapiens, Monocyte, read-out: EC50 TNF, LPS-stimulated human monocytes, TNFα TR-FRET
[6] = IC50 HTRF, Cot HTRF (TR-FRET KinEASE) biochemical assay, 400 μM ATP
[7] = read-out: EC50 TNF, LPS-stimulated human monocytes, TNFα TR-FRET
[8] = read-out: IC50 HTRF, Cot HTRF (TR-FRET KinEASE) biochemical assay, 400 μM ATP

Human Cot, sequence (P41279 30-397): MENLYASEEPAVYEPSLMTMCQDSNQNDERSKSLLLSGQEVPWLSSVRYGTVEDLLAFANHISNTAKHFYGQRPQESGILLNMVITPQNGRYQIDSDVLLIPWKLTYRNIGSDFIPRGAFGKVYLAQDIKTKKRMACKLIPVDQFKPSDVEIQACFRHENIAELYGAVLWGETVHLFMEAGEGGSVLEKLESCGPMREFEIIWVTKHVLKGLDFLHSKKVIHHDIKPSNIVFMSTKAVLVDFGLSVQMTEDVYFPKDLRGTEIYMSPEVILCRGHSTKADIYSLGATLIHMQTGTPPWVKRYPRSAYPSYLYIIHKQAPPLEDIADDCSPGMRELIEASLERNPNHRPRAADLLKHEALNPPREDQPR

Structure (SMILES) | EC50 (TNFα; [1]) | IC50 (Human Cot; [2]) | also measured
CC(C)(CNc1c(C#N)cnc2c(Cl)cc(N[C@H](c3cn(C4(C(F)F)CC4)nn3)c3cccc4c(=O)[nH]ccc34)cc12)C(F)(F)F [Example 726, (S)-8-chloro-6-(((1-(1-(difluoromethyl)cyclopropyl)-1H-1,2,3-triazol-4-yl)(1-oxo-1,2-dihydroisoquinolin-5-yl)methyl)amino)-4-((3,3,3-trifluoro-2,2-dimethylpropyl)amino)quinoline-3-carbonitrile] | 127 nM | 4 nM | 
CC(C)(C)N1CCC(n2cc([C@@H](Nc3cc(Cl)c4ncc(C#N)c(Nc5ccc(Cl)c(Cl)c5)c4c3)c3cscn3)nn2)CC1 [Example 350, (S)-6-(((1-(1-(tert-butyl)piperidin-4-yl)-1H-1,2,3-triazol-4-yl)(thiazol-4-yl)methyl)amino)-8-chloro-4-((3,4-dichlorophenyl)amino)quinoline-3-carbonitrile] | 4510 nM | 26 nM | 
Cn1ccc2c([C@H](Nc3cc(Cl)c4ncc(C#N)c(NCC(C)(C)C(F)(F)F)c4c3)c3cn(C4(C)CC4)nn3)cccc2c1=O [Example 781, (S)-8-chloro-6-(((2-methyl-1-oxo-1,2-dihydroiso-quinolin-5-yl)(1-(1-methylcyclopropyl)-1H-1,2,3-triazol-4-yl)methyl)amino)-4-((3,3,3-trifluoro-2,2-dimethylpropyl)amino)quinoline-3-carbonitrile] |  |  | EC50 (TNFα; [3]): 22 nM; IC50 (Human Cot; [4]): 2 nM
CN(C)CCCn1cc([C@@H](Nc2cc(Cl)c3ncc(C#N)c(Nc4ccc(F)c(Cl)c4)c3c2)c2cscn2)nn1 [Example 360, (S)-8-chloro-4-((3-chloro-4-fluorophenyl)amino)-6-(((1-(3-(dimethylamino)propyl)-1H-1,2,3-triazol-4-yl)(thiazol-4-yl)methyl)-amino)quinoline-3-carbonitrile] | 151 nM | 4 nM | 
Cn1ccc2c([C@H](Nc3cc(Cl)c4ncc(C#N)c(NCC(C)(C)C)c4c3)c3cn(C4(C(F)F)CC4)nn3)ccnc21 [Example 767, (S)-8-chloro-6-(((1-(1-(difluoromethyl)cyclopropyl)-1H-1,2,3-triazol-4-yl)(1-methyl-1H-pyrrolo[2,3-b]pyridin-4-yl)methyl)amino)-4-(neopentylamino)quinoline-3-carbonitrile] | 209 nM | 18 nM | 
[2H]C([2H])([2H])C([2H])([2H])C(Nc1c(C#N)cnc2c(Cl)cc(N[C@@]([2H])(c3ccc(F)nc3)c3cn(C4CC4)nn3)cc12)c1ccccc1 (stereo partly drawn) [Example 115, 8-chloro-6-(((S)-(1-cyclopropyl-1H-1,2,3-triazol-4-yl)(6-fluoropyridin-3-yl)methyl-d)amino)-4-((1-phenylpropyl-2,2,3,3,3-d5)amino)quinoline-3-carbonitrile] | 119 nM | 5 nM | 
CC(C)(C)CNc1c(C#N)cnc2c(C#N)cc(N[C@H](c3cn(C4(C(F)F)CC4)nn3)c3cccn4nccc34)cc12 [Example 444] |  |  | EC50 (TNFα; [3]): 33 nM; IC50 (Human Cot; [4]): 2 nM
Cc1nc(F)ccc1[C@H](Nc1cc(Cl)c2ncc(C#N)c(NCC(C)(C)C#N)c2c1)c1cn(C2(C(F)(F)F)CC2)nn1 [Example 633, (S)-8-chloro-4-((2-cyano-2-methylpropyl)amino)-6-(((6-fluoro-2-methylpyridin-3-yl)(1-(1-(trifluoromethyl)cyclopropyl)-1H-1,2,3-triazol-4-yl)methyl)amino)quinoline-3-carbonitrile] | 267 nM | 28 nM | 
CC[C@@H](Nc1c(C#N)cnc2c(Cl)cc(N[C@H](c3cn(C4(C(F)(F)F)CC4)nn3)c3ccc(F)nc3C)cc12)c1ccccc1 [Example 440, 8-chloro-6-(((S)-(6-fluoro-2-methyl-pyridin-3-yl)(1-(1-(trifluoromethyl)-cyclopropyl)-1H-1,2,3-triazol-4-yl)methyl)amino)-4-(((R)-1-phenyl-propyl)amino)quinoline-3-carbonitrile] | 171 nM | 7 nM | 
CC(C)(C)N1CCC(n2cc([C@@H](Nc3cc(Cl)c4ncc(C#N)c(Nc5ccc(F)c(Cl)c5)c4c3)c3ccc(Cl)nc3Cl)nn2)CC1 [Example 325, (S)-6-(((1-(1-(tert-butyl)piperidin-4-yl)-1H-1,2,3-triazol-4-yl)(2,6-dichloropyridin-3-yl)methyl)amino)-8-chloro-4-((3-chloro-4-fluorophenyl)-amino)quinoline-3-carbonitrile] | 650 nM | 20 nM | 
Cc1nc(F)ccc1[C@H](Nc1cc(Cl)c2ncc(C#N)c(NCC(C)(C)C)c2c1)c1cn(C2(C(F)F)CC2)nn1 [Example 447, (S)-8-chloro-6-(((1-(1-(difluoromethyl)-cyclopropyl)-1H-1,2,3-triazol-4-yl)(6-fluoro-2-methylpyridin-3-yl)methyl)-amino)-4-(neopentylamino)quinoline-3-carbonitrile] | 40 nM | 2 nM | 
CC(C)(C)CNc1c(C#N)cnc2c(Cl)cc(N[C@H](c3cn(C4(C(N)=O)CC4)nn3)c3cccc4ncccc34)cc12 [Example 565, (S)-1-(4-(((8-chloro-3-cyano-4-(neopentyl-amino)quinolin-6-yl)amino)(quinolin-5-yl)methyl)-1H-1,2,3-triazol-1-yl)cyclo-propane-1-carboxamide] | 306 nM | 2 nM | 
N#CCC[C@@H](Nc1c(C#N)cnc2c(Cl)cc(N[C@H](c3cn(C4CC4)nn3)c3cccc4c3CNC4)cc12)c1ccccc1 [Example 68, 8-chloro-4-(((R)-3-cyano-1-phenyl-propyl)amino)-6-(((S)-(1-cyclopropyl-1H-1,2,3-triazol-4-yl)(isoindolin-4-yl)methyl)amino)quinoline-3-carbonitrile] | 51 nM | 1 nM | 
CC(C)(C)CNc1c(C#N)cnc2c(C#N)cc(N[C@H](c3cn(C4(C(N)=O)CCC4)nn3)c3cccc4ncccc34)cc12 [Example 576, (S)-1-(4-(((3,8-dicyano-4-(neopentyl-amino)quinolin-6-yl)amino)(quinolin-5-yl)methyl)-1H-1,2,3-triazol-1-yl)cyclobutane-1-carboxamide] | 433 nM | 1 nM | 
CC(C)(C)CNc1c(C#N)cnc2c(C#N)cc(N[C@H](c3cn(C4(C(F)F)CC4)nn3)c3cccc4ccncc34)cc12 [Example 552, (S)-6-(((1-(1-(difluoromethyl)cyclopropyl)-1H-1,2,3-triazol-4-yl)(isoquinolin-8-yl)methyl)-amino)-4-(neopentylamino)quinoline-3,8-dicarbonitrile] | 26 nM | 2 nM | 
[2H][C@](Nc1cc(Cl)c2ncc(C#N)c(NCC(C)(C)C)c2c1)(c1ccc(F)nc1)c1cn(C2(C(F)F)CC2)nn1 [Example 518, (S)-8-chloro-6-(((1-(1-(difluoromethyl)-cyclopropyl)-1H-1,2,3-triazol-4-yl)(6-fluoropyridin-3-yl)methyl-d)amino)-4-(neopentylamino)quinoline-3-carbonitrile] | 207 nM | 7 nM | 
CC(C)(C)CNc1c(C#N)cnc2c(C#N)cc(N[C@H](c3cn(C4(C#N)CC4)nn3)c3cccc4ncsc34)cc12 [Example 67, (S)-6-((benzo[d]thiazol-7-yl(1-(1-cyanocyclopropyl)-1H-1,2,3-triazol-4-yl)methyl)amino)-4-(neopentylamino)quinoline-3,8-dicarbonitrile] | 32 nM | 1 nM | 
CC[C@@H](Nc1c(C#N)cnc2c(Cl)cc(N[C@@H](c3ccc(F)nc3C)c3nnn(C4(C(F)(F)F)CC4)c3F)cc12)c1ccccc1 [Example 950, 8-chloro-6-(((S)-(5-fluoro-1-(1-(trifluoromethyl)cyclopropyl)-1H-1,2,3-triazol-4-yl)(6-fluoro-2-methylpyridin-3-yl)methyl)amino)-4-(((R)-1-phenylpropyl)amino)quinoline-3-carbonitrile] |  |  | EC50 (TNFα; [5]): 260 nM; IC50 (Human Cot; [6]): 17 nM
COc1ccc(C(Nc2cc(Cl)c3ncc(C#N)c(NCC(C)(C)C)c3c2)c2cn(C3(C(F)(F)F)CC3)nn2)c(C)n1 (stereo not shown) [Example 978, 8-chloro-6-(((6-methoxy-2-methylpyridin-3-yl)(1-(1-(trifluoromethyl)cyclopropyl)-1H-1,2,3-triazol-4-yl)methyl)amino)-4-(neopentylamino)quinoline-3-carbonitrile] |  |  | EC50 (TNFα; [5]): 303 nM; IC50 (Human Cot; [6]): 9 nM
CC[C@@H](Nc1c(C#N)cnc2c(Cl)cc(N[C@H](c3cn(C4CCN(C(C)(C)C)CC4)nn3)c3cccnc3C)cc12)c1ccccc1 [Example 221, 6-(((S)-(1-(1-(tert-butyl)piperidin-4-yl)-1H-1,2,3-triazol-4-yl)(2-methylpyridin-3-yl)methyl)amino)-8-chloro-4-(((R)-1-phenylpropyl)amino)quinoline-3-carbonitrile] | 28 nM | 2 nM | 
Cn1ccc2c([C@H](Nc3cc(C#N)c4ncc(C#N)c(NCC(C)(C)C)c4c3)c3cn(C4(C(F)F)CC4)nn3)cccc2c1=O [Example 871] |  |  | EC50 (TNFα; [7]): 32 nM; IC50 (Human Cot; [8]): 1 nM
COc1nccc2c([C@H](Nc3cc(Cl)c4ncc(C#N)c(NCC(C)(C)C)c4c3)c3cn(C4(C(F)F)CC4)nn3)cccc12 [Example 914, (S)-8-chloro-6-(((1-(1-(difluoromethyl)cyclo-propyl)-1H-1,2,3-triazol-4-yl)(1-methoxylsoquinolin-5-yl)methyl)amino)-4-(neopentylamino)quinoline-3-carbonitrile] |  |  | EC50 (TNFα; [7]): 116 nM; IC50 (Human Cot; [8]): 9 nM
Cc1nc(F)ccc1[C@H](Nc1cc(C#N)c2ncc(C#N)c(NCC(C)(C)C)c2c1)c1cn(C2(C(F)(F)F)CC2)nn1 [Example 471, (S)-6-(((6-fluoro-2-methylpyridin-3-yl)(1-(1-(trifluoromethyl)cyclopropyl)-1H-1,2,3-triazol-4-yl)methyl)amino)-4-(neopentyl-amino)quinoline-3,8-dicarbonitrile] | 45 nM | 3 nM | 
